# Legend:
# NEK4(h) = NEK4(h) (Homo sapiens, UniProt P51957); experiment: Kinase Profiler; format: biochemical
# Protocol: (§1) The kinase profiler was performed by the company Eurofins (Discovery, Panlab and Cerep).
# PRK2(h) = PRK2(h) (Homo sapiens, UniProt Q16513); experiment: Kinase Profiler; format: biochemical
# Protocol: as §1
# Adrenergic β2 = Adrenergic β2 (Homo sapiens, UniProt P07550); experiment: Safety screen; format: binding
# Protocol: (§2) Blood cell counts, kinase profiler, safety screen, bacterial cytotoxicity, Ames, micronucleus assays were performed by the company Eurofins (France). The kinase profiler was performed by the company Eurofins (Discovery, Panlab and Cerep).
# FGFR4(h) = FGFR4(h) (Homo sapiens, UniProt P22455); experiment: Kinase Profiler; format: biochemical
# Protocol: as §1
# STK16(h) = STK16(h) (Homo sapiens, UniProt O75716); experiment: Kinase Profiler; format: biochemical
# Protocol: as §1
# SIK(h) = SIK(h) (Homo sapiens, UniProt P57059); experiment: Kinase Profiler; format: biochemical
# Protocol: as §1
# DDR2(h) = DDR2(h) (Homo sapiens, UniProt Q16832); experiment: Kinase Profiler; format: biochemical
# Protocol: as §2
# B-Raf(h) = B-Raf(h) (Homo sapiens, UniProt P15056); experiment: Kinase Profiler; format: biochemical
# Protocol: as §2
# HIPK1(h) = HIPK1(h) (Homo sapiens, UniProt Q86Z02); experiment: Kinase Profiler; format: biochemical
# Protocol: as §1
# PAK5(h) = PAK5(h) (Homo sapiens, UniProt Q9P286); experiment: Kinase Profiler; format: biochemical
# Protocol: as §1
# AMPKα1(h) = AMPKα1(h) (Homo sapiens, UniProt Q13131); experiment: Kinase Profiler; format: biochemical
# Protocol: as §2
# EphA5(h) = EphA5(h) (Homo sapiens, UniProt P54756); experiment: Kinase Profiler; format: biochemical
# Protocol: as §2
# [1] = system: membrane receptors, ion channel, and kinases; experiment: In vitro binding assays on a panel of potential targets
# Protocol: as §2
# [2] = molecular target: PI3K (p110a(H1047R)/p85a)(m) (Mus musculus, UniProt P42337, H1047R); experiment: Kinase Profiler; format: biochemical
# Protocol: as §2
# Pyk2(h) = Pyk2(h) (Homo sapiens, UniProt Q14289); experiment: Kinase Profiler; format: biochemical
# Protocol: as §1
# MAK(h) = MAK(h) (Homo sapiens, UniProt P20794); experiment: Kinase Profiler; format: biochemical
# Protocol: as §1
# PKCγ(h) = PKCγ(h) (Homo sapiens, UniProt P05129); experiment: Kinase Profiler; format: biochemical
# Protocol: as §1
# CK2α2(h) = CK2α2(h) (Homo sapiens, UniProt P19784); experiment: Kinase Profiler; format: biochemical
# Protocol: as §1
# CK1δ(h) = CK1δ(h) (Homo sapiens, UniProt P48730); experiment: Kinase Profiler; format: biochemical
# Protocol: as §1
# CDKL4(h) = CDKL4(h) (Homo sapiens, UniProt Q5MAI5); experiment: Kinase Profiler; format: biochemical
# Protocol: as §1
# CaMKIIγ(h) = CaMKIIγ(h) (Homo sapiens, UniProt Q13555); experiment: Kinase Profiler; format: biochemical
# Protocol: as §1
# Hck(h) = Hck(h) (Homo sapiens, UniProt P08631); experiment: Kinase Profiler; format: biochemical
# Protocol: as §1
# Rsk4(h) = Rsk4(h) (Homo sapiens, UniProt Q9UK32); experiment: Kinase Profiler; format: biochemical
# Protocol: as §1
# mTOR(h) = mTOR(h) (Homo sapiens, UniProt P42345); experiment: Kinase Profiler; format: biochemical
# Protocol: as §1
# Ron(h) = Ron(h) (Homo sapiens, UniProt Q04912); experiment: Kinase Profiler; format: biochemical
# Protocol: as §2
# [3] = molecular target: Protein Tyrosine Kinase, Insulin Receptor (Homo sapiens, UniProt P06213); experiment: Safety screen; format: biochemical
# Protocol: as §1
# CLK3(h) = CLK3(h) (Homo sapiens, UniProt P49761); experiment: Kinase Profiler; format: biochemical
# Protocol: as §1
# TrkA(h) = TrkA(h) (Homo sapiens, UniProt P04629); experiment: Kinase Profiler; format: biochemical
# Protocol: as §1
# Syk(h) = Syk(h) (Homo sapiens, UniProt P43405); experiment: Kinase Profiler; format: biochemical
# Protocol: as §1
# TrkA(h), sequence (P04629 33-796): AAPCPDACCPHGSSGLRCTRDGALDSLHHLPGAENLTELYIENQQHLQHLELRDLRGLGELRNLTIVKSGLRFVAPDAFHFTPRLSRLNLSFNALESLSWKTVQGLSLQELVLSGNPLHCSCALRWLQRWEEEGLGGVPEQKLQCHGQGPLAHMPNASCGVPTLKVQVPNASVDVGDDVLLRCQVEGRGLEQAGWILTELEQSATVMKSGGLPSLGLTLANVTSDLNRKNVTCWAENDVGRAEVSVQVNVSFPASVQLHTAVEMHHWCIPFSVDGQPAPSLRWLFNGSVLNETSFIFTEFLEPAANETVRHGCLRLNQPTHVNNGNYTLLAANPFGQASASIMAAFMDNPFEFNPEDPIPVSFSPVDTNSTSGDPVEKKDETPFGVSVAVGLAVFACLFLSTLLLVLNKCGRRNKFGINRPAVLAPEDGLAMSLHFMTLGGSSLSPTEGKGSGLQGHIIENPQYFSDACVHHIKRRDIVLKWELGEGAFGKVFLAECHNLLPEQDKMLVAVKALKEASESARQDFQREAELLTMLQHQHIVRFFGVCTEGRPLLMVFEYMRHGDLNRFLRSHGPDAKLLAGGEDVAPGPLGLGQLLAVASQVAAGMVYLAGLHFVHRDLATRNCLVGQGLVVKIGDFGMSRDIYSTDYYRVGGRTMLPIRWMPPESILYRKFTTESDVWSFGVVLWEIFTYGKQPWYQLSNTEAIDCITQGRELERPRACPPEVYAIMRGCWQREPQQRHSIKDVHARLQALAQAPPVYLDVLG
# Ron(h), sequence (Q04912 25-1400): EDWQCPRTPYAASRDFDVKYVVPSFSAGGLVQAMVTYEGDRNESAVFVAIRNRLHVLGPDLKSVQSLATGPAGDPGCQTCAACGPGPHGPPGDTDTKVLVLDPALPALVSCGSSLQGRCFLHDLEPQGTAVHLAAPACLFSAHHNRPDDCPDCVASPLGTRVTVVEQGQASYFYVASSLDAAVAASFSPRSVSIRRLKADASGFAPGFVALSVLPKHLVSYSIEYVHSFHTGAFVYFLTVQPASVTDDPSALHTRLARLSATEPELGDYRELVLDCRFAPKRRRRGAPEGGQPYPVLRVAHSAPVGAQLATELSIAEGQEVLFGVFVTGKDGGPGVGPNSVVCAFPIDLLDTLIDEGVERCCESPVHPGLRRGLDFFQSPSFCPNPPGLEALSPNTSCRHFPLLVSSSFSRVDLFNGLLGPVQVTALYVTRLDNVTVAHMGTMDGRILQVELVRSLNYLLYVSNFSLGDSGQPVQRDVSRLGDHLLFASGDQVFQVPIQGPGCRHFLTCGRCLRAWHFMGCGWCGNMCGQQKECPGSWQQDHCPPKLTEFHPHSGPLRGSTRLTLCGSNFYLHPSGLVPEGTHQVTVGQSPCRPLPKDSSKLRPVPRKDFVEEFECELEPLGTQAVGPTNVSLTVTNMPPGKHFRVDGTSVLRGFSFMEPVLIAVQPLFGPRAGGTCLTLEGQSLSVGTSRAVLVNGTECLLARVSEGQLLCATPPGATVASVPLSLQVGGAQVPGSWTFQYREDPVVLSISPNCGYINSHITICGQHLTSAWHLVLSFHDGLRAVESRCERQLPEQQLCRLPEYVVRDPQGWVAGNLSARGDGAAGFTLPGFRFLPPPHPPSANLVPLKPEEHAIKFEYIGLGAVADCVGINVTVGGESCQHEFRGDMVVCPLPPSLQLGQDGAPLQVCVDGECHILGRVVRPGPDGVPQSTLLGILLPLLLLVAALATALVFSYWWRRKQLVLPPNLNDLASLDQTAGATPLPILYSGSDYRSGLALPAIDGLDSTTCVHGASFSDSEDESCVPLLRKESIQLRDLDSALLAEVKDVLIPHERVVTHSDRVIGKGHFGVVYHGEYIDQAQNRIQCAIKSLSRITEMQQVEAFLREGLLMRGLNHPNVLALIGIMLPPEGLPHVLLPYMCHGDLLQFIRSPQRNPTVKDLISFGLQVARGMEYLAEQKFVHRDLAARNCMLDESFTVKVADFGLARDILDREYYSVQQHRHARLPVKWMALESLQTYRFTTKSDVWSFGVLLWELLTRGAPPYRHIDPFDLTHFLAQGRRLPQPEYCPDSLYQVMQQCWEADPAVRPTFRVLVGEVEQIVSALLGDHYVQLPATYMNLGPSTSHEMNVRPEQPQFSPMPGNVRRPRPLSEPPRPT
# CLK3(h), sequence (P49761 whole entry): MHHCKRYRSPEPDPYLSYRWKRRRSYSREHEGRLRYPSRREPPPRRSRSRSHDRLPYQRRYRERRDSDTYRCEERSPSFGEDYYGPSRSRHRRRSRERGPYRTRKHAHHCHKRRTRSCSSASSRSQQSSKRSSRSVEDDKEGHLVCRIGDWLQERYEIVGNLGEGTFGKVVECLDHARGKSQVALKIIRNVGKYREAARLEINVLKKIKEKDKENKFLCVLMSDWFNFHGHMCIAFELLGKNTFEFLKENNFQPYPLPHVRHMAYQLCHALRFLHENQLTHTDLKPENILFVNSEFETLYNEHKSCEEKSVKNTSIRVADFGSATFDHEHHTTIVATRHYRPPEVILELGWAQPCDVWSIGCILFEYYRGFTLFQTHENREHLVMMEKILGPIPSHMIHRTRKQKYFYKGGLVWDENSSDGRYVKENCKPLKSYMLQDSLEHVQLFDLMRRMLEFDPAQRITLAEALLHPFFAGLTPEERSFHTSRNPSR
# CK2α2(h), sequence (P19784 whole entry): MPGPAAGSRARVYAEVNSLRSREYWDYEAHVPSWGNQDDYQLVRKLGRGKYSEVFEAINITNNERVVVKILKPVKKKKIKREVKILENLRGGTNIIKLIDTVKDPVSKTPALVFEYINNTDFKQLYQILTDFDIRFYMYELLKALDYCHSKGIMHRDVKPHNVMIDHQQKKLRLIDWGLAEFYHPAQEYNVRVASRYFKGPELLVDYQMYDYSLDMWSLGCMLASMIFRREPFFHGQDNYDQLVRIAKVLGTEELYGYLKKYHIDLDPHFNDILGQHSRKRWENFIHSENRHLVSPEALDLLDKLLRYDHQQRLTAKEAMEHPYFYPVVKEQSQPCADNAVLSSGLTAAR
# PAK5(h), sequence (Q9P286 whole entry): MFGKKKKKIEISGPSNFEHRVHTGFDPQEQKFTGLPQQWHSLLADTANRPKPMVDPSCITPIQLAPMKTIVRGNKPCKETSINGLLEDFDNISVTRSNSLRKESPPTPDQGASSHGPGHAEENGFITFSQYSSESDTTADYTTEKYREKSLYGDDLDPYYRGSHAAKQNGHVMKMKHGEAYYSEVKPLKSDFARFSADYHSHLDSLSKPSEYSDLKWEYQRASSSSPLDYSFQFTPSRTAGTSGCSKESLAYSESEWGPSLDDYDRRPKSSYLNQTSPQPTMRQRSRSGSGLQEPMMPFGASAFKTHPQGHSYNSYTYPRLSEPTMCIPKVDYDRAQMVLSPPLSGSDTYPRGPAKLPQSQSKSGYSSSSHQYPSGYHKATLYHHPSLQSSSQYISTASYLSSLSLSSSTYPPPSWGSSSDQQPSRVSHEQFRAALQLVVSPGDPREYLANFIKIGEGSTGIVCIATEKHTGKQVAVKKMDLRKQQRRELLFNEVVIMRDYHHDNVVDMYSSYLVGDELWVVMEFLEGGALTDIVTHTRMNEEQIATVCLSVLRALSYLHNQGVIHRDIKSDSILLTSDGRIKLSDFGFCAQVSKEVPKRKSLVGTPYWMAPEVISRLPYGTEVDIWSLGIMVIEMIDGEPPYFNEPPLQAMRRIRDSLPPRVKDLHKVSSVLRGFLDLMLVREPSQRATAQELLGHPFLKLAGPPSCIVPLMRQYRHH
# CK1δ(h), sequence (P48730 whole entry): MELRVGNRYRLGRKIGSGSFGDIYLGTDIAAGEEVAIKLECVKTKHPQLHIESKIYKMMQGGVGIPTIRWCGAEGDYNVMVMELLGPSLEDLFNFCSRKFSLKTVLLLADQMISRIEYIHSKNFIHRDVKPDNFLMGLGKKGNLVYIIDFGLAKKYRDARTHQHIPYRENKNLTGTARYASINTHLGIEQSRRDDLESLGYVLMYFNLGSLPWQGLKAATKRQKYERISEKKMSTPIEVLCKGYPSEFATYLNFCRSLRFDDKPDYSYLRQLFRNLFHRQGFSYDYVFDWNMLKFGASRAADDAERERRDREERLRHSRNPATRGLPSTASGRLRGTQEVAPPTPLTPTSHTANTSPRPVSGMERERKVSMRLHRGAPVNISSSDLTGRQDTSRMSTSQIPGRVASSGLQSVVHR
compound,measurement,setting,value
COc1ccc(OC)c(NS(=O)(=O)c2ccc(NC(=O)CCSc3ccc(C)cc3)cc2)c1 [Compound A41],Activity(%),NEK4(h),108%
same,Activity(%),PRK2(h),110%
same,% inh.,Adrenergic β2,5%
same,Activity(%),FGFR4(h),116%
same,Activity(%),STK16(h),115%
same,Activity(%),SIK(h),144%
same,Activity(%),DDR2(h),114%
same,Activity(%),B-Raf(h),90%
same,Activity(%),HIPK1(h),110%
same,Activity(%),PAK5(h),105%
same,Activity(%),AMPKα1(h),102%
same,Activity(%),EphA5(h),110%
same,off-target binding,[1],only very limited off-target binding
same,Activity(%),[2],100%
same,Activity(%),Pyk2(h),92%
same,Activity(%),MAK(h),117%
same,Activity(%),PKCγ(h),112%
same,Activity(%),CK2α2(h),109%
same,Activity(%),CK1δ(h),96%
same,Activity(%),CDKL4(h),91%
same,Activity(%),CaMKIIγ(h),92%
same,Activity(%),Hck(h),111%
same,Activity(%),Rsk4(h),128%
same,Activity(%),mTOR(h),101%
same,Activity(%),Ron(h),110%
same,% inh.,[3],-25%
same,Activity(%),CLK3(h),110%
same,Activity(%),TrkA(h),99%
same,Activity(%),Syk(h),91%
